One data set has as its system ADO74 cells. As to the kind of experiment: [^3H]retinol pulse chase in ADO74. The format is cell-based, human. How it is done:
(§1) For the pulse chase experiments, the cells were cultured for 24 h in 100 nM [^3H]retinol. Cells were then rinsed three times with warm PBS over a 30 minute period, and then incubated in growth medium without [^3H]retinol for an additional one to eight days. At various times following the removal of [^3H]retinol from the medium, dishes of cells were harvested and retinoids were extracted and subjected to HPLC analysis.
(§2) The retinoids were extracted as described previously (McLean, et al. Clin. Chem. 1982, 28:693-696). Non-radiolabeled retinoid standards were added to the samples prior to extraction. Briefly, 350 μl acetonitrile/butanol (50:50, v/v), 0.1% butylated hydroxytoluene (BHT) was added to 0.5 ml of cells or medium samples. The mixtures were vortexed thoroughly for 30 sec. After addition of 300 μl of a saturated (1.3 kg/liter) K2HPO4 solution and thorough mixing, the samples were centrifuged for 10 min at 3000 g. The upper organic layer was collected and transferred to an injector vial for automated HPLC analysis.
(§3) The HPLC analysis was performed using a Waters Millenium system (Waters Corp.) to separate the various retinoids. Samples were applied to an analytical 5 μm reverse-phase C18 column (Vydac, Hesperia, Calif.) at a flow rate of 1.5 ml/min. […] Non-radiolabeled retinoid standards were run concurrently and monitored at a wavelength of 340 nm while a Packard A-500 radiochromatography detector (Packard Instruments, Downers Grove, Ill.) was used to monitor the labeled retinoids. […]
(§4) Therefore, in this series of experiments the cells were cultured in the presence of 100 nM [^3H]retinol and 900 nM retinol in the medium for 24 h, followed by the removal of the [^3H]retinol from the medium. The cells were washed several times, and then dishes of cells were harvested at various times following the removal of [^3H]retinol from the medium, retinoids were extracted from the cells, and the [^3H]retinoids were analyzed by HPLC.

For data set [1], the system named is MCF-7 breast carcinoma cell line. The experiment in a line: [^3H]retinol esterification in MCF-7. The format is cell-based, human. Particulars: MCF-7, 22 h culture, 50 nM. How it is done:
(§5) All retinoid solutions and samples were handled under red or dim light. […] A separate control consisting of labeling medium without cells was included during the incubation period. Cells and one-fourth of the media were collected. Cells were washed once with 0.5 ml of phosphate-buffered saline (PBS) and removed from the monolayer in 0.5 ml PBS by scraping. Samples were stored at −70° C. until retinoid extraction. The cell numbers were counted from parallel dishes from each treatment at the time of cell harvest. The retinoids were extracted as described previously (McLean, et al. Clin. Chem. 1982, 28:693-696). Non-radiolabeled retinoid standards were added to the samples prior to extraction. Briefly, 350 μl acetonitrile/butanol (50:50, v/v), 0.1% butylated hydroxytoluene (BHT) was added to 0.5 ml of cells or medium samples. The mixtures were vortexed thoroughly for 30 sec. After addition of 300 μl of a saturated (1.3 kg/liter) K2HPO4 solution and thorough mixing, the samples were centrifuged for 10 min at 3000 g. […] The HPLC analysis was performed using a Waters Millenium system (Waters Corp.) to separate the various retinoids. […] Non-radiolabeled retinoid standards were run concurrently and monitored at a wavelength of 340 nm while a Packard A-500 radiochromatography detector (Packard Instruments, Downers Grove, Ill.) was used to monitor the labeled retinoids. […]

The next data set deals with OKP-7 cells. As to the kind of experiment: [^3H]retinol pulse chase in OKP-7. The format is cell-based, human. As for the experimental part:
as §1, §2, §3, §4

Data set [2] has as its system normal epithelial cell strains HMEC, ADO74, NHEK, OKP-7. The experiment in a line: [^3H]retinol esterification in normal epithelial cell strains. The format is cell-based, human. Particulars: 50 nM [^3H]retinol in the medium. How it is done:
as §5

Data set [3] relates to fibroblast cell strains GM0970 and CCD42-SK. As to the kind of experiment: [^3H]retinol metabolism in normal fibroblast cell strains. The format is cell-based, human. Particulars: 15-24 h culture in the presence of [^3H]retinol. As for the experimental part: as §5
Data set [4] deals with MDA-MB-231 breast carcinoma line. The experiment in a line: [^3H]retinol pulse chase in MDA-MB-231. The format is cell-based, human. As for the experimental part:
as §1
(§6) The retinoids were extracted as described previously (McLean, et al. Clin. Chem. 1982, 28:693-696). Non-radiolabeled retinoid standards were added to the samples prior to extraction. […]
(§7) The HPLC analysis was performed using a Waters Millenium system (Waters Corp.) to separate the various retinoids. […] Non-radiolabeled retinoid standards were run concurrently and monitored at a wavelength of 340 nm while a Packard A-500 radiochromatography detector (Packard Instruments, Downers Grove, Ill.) was used to monitor the labeled retinoids. […]
as §4

The test system of data set [5] is SCC-40 squamous cell carcinoma line. The experiment in a line: [^3H]retinol pulse chase in SCC-40. The format is cell-based, human. As for the experimental part:
as §1, §6, §7, §4

Data set [6] has as its system normal human bronchial epithelial cells (NHBE). The experiment in a line: [^3H]retinol esterification in NHBE. The format is cell-based. The following applies: 15 h culture. How it is done: as §5
For data set [7], the system named is normal human epidermal keratinocytes (NHEK). The experiment in a line: [^3H]retinol esterification in NHEK. The format is cell-based. The following applies: 15 h culture. As for the experimental part:
as §5

The subject of data set [8] is SCC-40 carcinoma line from the soft palate. The experiment in a line: [^3H]retinol esterification in SCC-40. The format is cell-based, human. Particulars: SCC-40, 22 h exposure, 50 nM. How it is done: as §5
For data set [9], the system named is SCC-12 skin squamous carcinoma line. As to the kind of experiment: [^3H]retinol esterification in SCC-12. The format is cell-based, human. Particulars: SCC-12, 22 h culture, 50 nM. As for the experimental part: as §2
The HPLC analysis was performed using a Waters Millenium system (Waters Corp.) to separate the various retinoids. Samples were applied to an analytical 5 μm reverse-phase C18 column (Vydac, Hesperia, Calif.) at a flow rate of 1.5 ml/min. The gradient consisted of a 35 min linear gradient from 15 mM ammonium acetate, pH 6.5, in water to 85% acetonitrile in a 10 min linear gradient from 85% acetonitrile to acetonitrile-dichloromethane (80:20) followed by a 15 min hold. Non-radiolabeled retinoid standards were run concurrently and monitored at a wavelength of 340 nm while a Packard A-500 radiochromatography detector (Packard Instruments, Downers Grove, Ill.) was used to monitor the labeled retinoids. […]

Data set [10] deals with human umbilical vein endothelial cells (HUVEC). The experiment in a line: [^3H]retinol metabolism in HUVEC. The format is cell-based. Particulars: 15 h culture, 50 nM [^3H]retinol. As for the experimental part: as §5
In a further data set the test system is LRAT mRNA. The experiment in a line: Northern blot analysis of LRAT transcripts after culture with retinoic acid. The format is cell-based, human. The following applies: 1 μM retinoic acid for 48 h; HUVEC, CCD42-SK, GM0970, HMEC, HNBE, NT2. An excerpt:
(§8) Total cellular RNA was isolated from cultured cells using RNA Stat-60 according to the manufacturer's instruction (Tel-Test, Friendswood, Tex.). RNA was electrophoretically fractionated by size on 1% agarose/2.2 M formaldehyde gels, transferred to nylon filters by blotting, and attached to the filters using a UV Stratalinker 1800. The cDNA probes used in this analysis were radiolabeled with [^32P]dCTP using a random primer labeling kit (Boehringer Mannheim, Indianapolis, Ind.) according to the manufacturer's directions. Glyceraldehyde phosphate dehydrogenase cDNA was used as a probe for Northern blots as described previously (Guo, et al. Cancer Res. 1998, 58:166-176; Chen, et al. J. Biol. Chem. 1996, 271:14971-14980). AHD-2 cDNA, isolated from a murine liver cDNA library by this laboratory (Chen, Mol. Pharm. 1994, 46:88-96), was used as a probe; this cDNA encodes an aldehyde dehydrogenase class I enzyme, also called ALDH-1 in human. The human LRAT cDNA clone was an Eco RI fragment (840 bp) as described (Ruiz, et al. J. Biol. Chem. 1999, 274:3834-3841). The human neutral, bile salt independent retinyl ester hydrolase and the hepatic, bile sale dependent retinyl ester hydrolase were EST clones #g4069398 and #g2237729, respectively, from Genome Systems (St. Louis, Mo.). […]

In data set [11] the test system is RA hydroxylase (CYP26) gene. As to the kind of experiment: Northern blot analysis of RA hydroxylase (CYP26) gene in MCF-7. The format is cell-based, human. The following applies: MCF-7 following retinoic acid addition.
Excerpt: as §8

The subject of data set [12] is RA hydroxylase (CYP26) gene. As to the kind of experiment: Northern blot analysis of RA hydroxylase (CYP26) gene in other tumor lines and normal cell strains. The following applies: other tumor lines or normal cell strains cultured with or without RA. The format is cell-based, human.
Excerpt: as §8

The mark [13] stands for this setting: ADO74, four to eight days after [^3H]retinol removal.
Where [14] appears, read: OKP-7, four to eight days after [^3H]retinol removal.

The text below walks through data of patent US6706506B2, “Detection of epithelial cell cancers and precancerous conditions” (priority 2000, dated 2004).

As to [^3H]retinol, the “intracellular concentration of [^3H]retinyl esters” value is roughly 30 µM in the data set on ADO74 cells (ADO74, four days after removal of [^3H]retinol, 100 nM [^3H]retinol and 900 nM retinol for 24 h); “approximately 26 μM” with OKP-7 cells (OKP-7, four days after removal of [^3H]retinol, 100 nM [^3H]retinol and 900 nM retinol for 24 h). The “intracellular concentration of [^3H]retinoic acid” value in the data set with ADO74 cells (setting [13]) and with OKP-7 cells (setting [14]) was 1 to 2 µM each time. For the same compound, the “intracellular concentration of [^3H]retinol” value in the data set on ADO74 cells (setting [13]) and in the data set with OKP-7 cells (setting [14]) was 3 to 10 µM throughout. Besides, the “[^3H]retinol esterification” value in [1] is “did not exhibit [^3H]retinol esterification”; in data set [8] it was “did not exhibit any significant [^3H]retinol esterification”; in data set [9] it was “some [^3H]retinol esterification”. For the same compound, in data set [2], the “time by which all of the [^3H]retinol in the medium had been esterified” value was in the range of 6 to 8 h. The retinol metabolism result in data set [3] was “Essentially no retinol metabolism occurred”. Moreover, the “time after removal by which no [^3H]retinol is detectable intracellularly” value in data set [4] (MDA-MB-231) and in [5] (SCC-40) was no more than 24 h each time. The “retinyl esters at the time of [^3H]retinol removal” value in [4] (MDA-MB-231, day 0) is recorded as “no detectable retinyl esters”; in data set [5] (SCC-40, day 0) it was “no detectable retinyl esters”. In addition, the “esterification of [^3H]retinol to retinyl esters” value in [6] and in data set [7] was “extensive esterification” throughout. In data set [10], the retinyl esters found entry is “only trace amounts of retinyl esters were found”.
As to `CC1=C(/C=C/C(C)=C/C=C/C(C)=C/C(=O)O)C(C)(C)CCC1` [retinoic acid, all-trans retinoic acid], the “effect on levels of LRAT mRNA” value in the data set on LRAT mRNA is listed as “a slight increase in LRAT mRNA”. In addition, the “expression of RA hydroxylase (CYP26) gene” value in data set [11] was “strongly expressed”; in [12], “not expressed at detectable levels”.
